Assay results: PubChem BioAssay AID330 (DTP/NCI, 2004)
“And” between values parts separate entries of the source, which are not always exact repeats. Identical values can stand only once. Toxic doses and inconclusive results are not listed.

System: P388 leukemia ip, CD2F1 mice, survival T/C
Experiment: NCI In Vivo Anticancer Drug Screen. Data for tumor model P388 Leukemia (intraperitoneal) in CD2F1 (CDF1) mice
Settings: endpoint: median survival time, higher = longer survival
In short: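 Mice carrying the transplanted tumor received test compound or vehicle. Survival was recorded in each group, and the value is the treated-group measurement divided by that of the vehicle-treated control group.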

[1] = dose: 100.0 mg/kg/injection, schedule: Q04DX003 (ip), vehicle: saline
[2] = dose: 200.0 mg/kg/injection, schedule: Q04DX003 (ip), vehicle: saline
[3] = dose: 50.0 mg/kg/injection, schedule: Q01DX005 (ip), vehicle: Klucel (hydroxypropylcellulose) (HPC)
[4] = dose: 100.0 mg/kg/injection, schedule: Q01DX005 (ip), vehicle: Klucel (hydroxypropylcellulose) (HPC)
[5] = dose: 200.0 mg/kg/injection, schedule: Q01DX005 (ip), vehicle: Klucel (hydroxypropylcellulose) (HPC)
[6] = dose: 60.0 mg/kg/injection, schedule: Q01DX005 (ip), vehicle: saline
[7] = dose: 120.0 mg/kg/injection, schedule: Q01DX005 (ip), vehicle: saline
[8] = dose: 50.0 mg/kg/injection, schedule: Q01DX009 (ip), vehicle: saline
[9] = dose: 100.0 mg/kg/injection, schedule: Q01DX009 (ip), vehicle: saline
[10] = dose: 200.0 mg/kg/injection, schedule: Q01DX009 (ip), vehicle: saline
[11] = dose: 50.0 mg/kg/injection, schedule: Q01DX009 (ip), vehicle: saline with Tween-80
[12] = dose: 100.0 mg/kg/injection, schedule: Q01DX009 (ip), vehicle: saline with Tween-80
[13] = dose: 25.0 mg/kg/injection, schedule: Q01DX009 (ip), vehicle: saline
[14] = dose: 200.0 mg/kg/injection, schedule: Q01DX009 (ip), vehicle: saline with Tween-80
[15] = dose: 400.0 mg/kg/injection, schedule: Q01DX009 (ip), vehicle: saline with Tween-80
[16] = dose: 50.0 mg/kg/injection, schedule: Q01DX005 (ip), vehicle: saline with Tween-80
[17] = dose: 100.0 mg/kg/injection, schedule: Q01DX005 (ip), vehicle: saline with Tween-80
[18] = dose: 200.0 mg/kg/injection, schedule: Q01DX005 (ip), vehicle: saline with Tween-80
[19] = dose: 60.0 mg/kg/injection, schedule: Q01DX005 (ip), vehicle: saline with Tween-80
[20] = dose: 50.0 mg/kg/injection, schedule: Q01DX005 (ip), vehicle: saline
[21] = dose: 100.0 mg/kg/injection, schedule: Q01DX005 (ip), vehicle: saline
[22] = dose: 200.0 mg/kg/injection, schedule: Q01DX005 (ip), vehicle: saline
[23] = dose: 50.0 mg/kg/injection, schedule: Q01DX009 (ip), vehicle: Klucel (hydroxypropylcellulose) (HPC)
[24] = dose: 100.0 mg/kg/injection, schedule: Q01DX009 (ip), vehicle: Klucel (hydroxypropylcellulose) (HPC)

CCn1c(S)c(N=NC(=S)c2ccc3ccccc3n2)c2ccccc21
T/C (dose: 50.0 mg/kg/injection, schedule: Q04DX003 (ip), vehicle: saline): 98 % of control
T/C [1]: 96 % of control
T/C [2]: 103 % of control

Cc1cnc2cc(Cl)ccc2c1Cl
T/C [3]: 101 % of control
T/C [4]: 100 % of control
T/C [5]: 103 % of control

CCOc1ccccc1N=Nc1c(C)nn(C(=S)S)c1OCC
T/C (dose: 60.0 mg/kg/injection, schedule: Q01DX005 (ip), vehicle: Klucel + Tween-80): 97 % of control
T/C (dose: 120.0 mg/kg/injection, schedule: Q01DX005 (ip), vehicle: Klucel + Tween-80): 95 % of control
T/C (dose: 240.0 mg/kg/injection, schedule: Q01DX005 (ip), vehicle: Klucel + Tween-80): 100 % of control

Cc1nn(-c2ccccc2)c2oc3ccc(Cl)cc3c(=O)c12
T/C [6]: 96 % of control
T/C [7]: 92 % of control

Cc1ccc(C#N)c(Cl)c1
T/C [8]: 100 % of control
T/C [9]: 100 % of control
T/C [10]: 106 % of control

CSC(SC)(SC)SC
T/C [11]: 94 % of control
T/C [12]: 109 % of control

C/C(=N\NC(=O)CCl)C(C)(C)C
T/C [13]: 111 % of control
T/C [8]: 109 % of control
T/C [9]: 103 % of control

Cc1c(Cl)ccc2c(C(O)CBr)cc(-c3ccccc3)nc12 (stereo not given)
T/C [12]: 103 % of control
T/C [14]: 109 % of control
T/C [15]: 100 % of control

CC(=O)Nc1ncn[nH]1
T/C [11]: 100 % of control
T/C [12]: 90 % of control
T/C (dose: 100.0 mg/kg/injection, schedule: Q04DX003 (ip), vehicle: saline with Tween-80): 100 % of control
T/C [14]: 90 % of control
T/C (dose: 200.0 mg/kg/injection, schedule: Q04DX003 (ip), vehicle: saline with Tween-80): 90 % of control

CCSCCC1(CCC(C)C)C(=O)NC(=Nc2ccccc2)NC1=O (stereo not given)
T/C [11]: 99 % of control
T/C [12]: 95 % of control
T/C [14]: 99 % of control
T/C [15]: 95 % of control

O=C(c1ccc([N+](=O)[O-])cc1)c1cnc2nc(-c3ccccc3)c(-c3ccccc3)nn12
T/C (dose: 12.5 mg/kg/injection, schedule: Q01DX005 (ip), vehicle: saline with Tween-80): 99 % of control
T/C (dose: 25.0 mg/kg/injection, schedule: Q01DX005 (ip), vehicle: saline with Tween-80): 97 % of control
T/C [16]: 88 % of control and 93 % of control
T/C [17]: 89 % of control
T/C [18]: 96 % of control

O=c1c2cc(O)c(O)cc2oc2cc(O)c(C3OC(CO)C(O)C(O)C3O)c(O)c12 (stereo not given)
T/C (dose: 100.0 mg/kg/injection, schedule: Q01DX001 (ip), vehicle: saline): 101 % of control
T/C (dose: 400.0 mg/kg/injection, schedule: Q01DX001 (ip), vehicle: saline): 101 % of control

COSc1ccc(C)cc1
T/C [1]: 108 % of control
T/C [2]: 100 % of control

NC(=O)c1ccccn1
T/C [13]: 108 % of control
T/C [8]: 110 % of control
T/C [9]: 99 % of control
T/C [10]: 99 % of control

CCCC1C(CC)C=C(CC)C(O)C1(CC)CO (stereo not given)
T/C [16]: 97 % of control
T/C [17]: 97 % of control
T/C [18]: 97 % of control

O=C(NCc1ccccc1)c1ccccc1NS(=O)(=O)c1ccc(Cl)c(Cl)c1
T/C [16]: 96 % of control
T/C [17]: 87 % of control
T/C [18]: 93 % of control

CC(NC(=O)OCc1ccccc1)C(=O)N1CCCC1C(=O)O (stereo not given)
T/C [3]: 91 % of control
T/C [4]: 90 % of control
T/C [5]: 98 % of control

COC(=O)C1=C(C(=O)OC)C2OC1c1cc3ccccc3cc12
T/C (dose: 7.5 mg/kg/injection, schedule: Q01DX005 (ip), vehicle: saline with Tween-80): 113 % of control
T/C (dose: 15.0 mg/kg/injection, schedule: Q01DX005 (ip), vehicle: saline with Tween-80): 113 % of control
T/C (dose: 30.0 mg/kg/injection, schedule: Q01DX005 (ip), vehicle: saline with Tween-80): 108 % of control
T/C [19]: 97 % of control

Cc1cc(S(=O)(=O)O)ccc1N=c1ccc2c(-c3ccccc3C(=O)O)c3ccc(Nc4ccccc4C)cc3oc-2c1
T/C [20]: 88 % of control
T/C [21]: 105 % of control
T/C [22]: 91 % of control

CCOn1nnc2ccccc21
T/C [11]: 92 % of control
T/C [12]: 95 % of control
T/C [14]: 92 % of control

COc1ccccc1OCC(O)CNc1ccc(Cl)cc1C(=O)c1ccccc1Cl (stereo not given)
T/C [16]: 90 % of control
T/C [17]: 90 % of control
T/C [18]: 88 % of control

O=C1C2C3C=CC(C2C(=O)N1CN1CCSCC1)C1C2C(=O)N(CN4CCSCC4)C(=O)C2C31 (stereo not given)
T/C (dose: 25.0 mg/kg/injection, schedule: Q01DX009 (ip), vehicle: saline with Tween-80): 99 % of control
T/C [11]: 116 % of control and 121 % of control
T/C [12]: 165 % of control
T/C [14]: 166 % of control and 194 % of control

CN(C)CCCNc1c2ccccc2nc2c1c(=O)n(C)c(=O)n2C
T/C [6]: 101 % of control
T/C [7]: 107 % of control

COc1ccc2c(C)cc(N/N=C\c3ccnc4ccccc34)nc2c1
T/C [3]: 91 % of control
T/C [4]: 92 % of control
T/C [5]: 90 % of control

CCOC(=O)c1c(C)c(C(=O)OCC)n2cnc(C(=O)OC)cc12
T/C (dose: 25.0 mg/kg/injection, schedule: Q04DX002 (ip), vehicle: saline with Tween-80): 97 % of control
T/C (dose: 50.0 mg/kg/injection, schedule: Q04DX002 (ip), vehicle: saline with Tween-80): 106 % of control and 94 % of control
T/C (dose: 100.0 mg/kg/injection, schedule: Q04DX002 (ip), vehicle: saline with Tween-80): 103 % of control and 122 % of control and 97 % of control
T/C (dose: 200.0 mg/kg/injection, schedule: Q04DX002 (ip), vehicle: saline with Tween-80): 104 % of control (2×) and 97 % of control
T/C (dose: 400.0 mg/kg/injection, schedule: Q04DX002 (ip), vehicle: saline with Tween-80): 113 % of control

CN(C(=O)C1(C)OC1c1ccccc1)c1ccccc1 (stereo not given)
T/C (dose: 100.0 mg/kg/injection, schedule: Q04DX003 (ip), vehicle: Klucel (hydroxypropylcellulose) (HPC)): 96 % of control
T/C (dose: 200.0 mg/kg/injection, schedule: Q04DX003 (ip), vehicle: Klucel (hydroxypropylcellulose) (HPC)): 100 % of control
T/C (dose: 400.0 mg/kg/injection, schedule: Q04DX003 (ip), vehicle: Klucel (hydroxypropylcellulose) (HPC)): 94 % of control

CC(CCl)OC(=O)Nc1cccc(C(F)(F)F)c1 (stereo not given)
T/C [19]: 106 % of control
T/C (dose: 120.0 mg/kg/injection, schedule: Q01DX005 (ip), vehicle: saline with Tween-80): 102 % of control
T/C (dose: 240.0 mg/kg/injection, schedule: Q01DX005 (ip), vehicle: saline with Tween-80): 107 % of control

O=C(O)c1cccc2c1Cc1cc([N+](=O)[O-])ccc1-2
T/C [3]: 95 % of control
T/C [4]: 103 % of control

COC(=O)C1C(COS(C)(=O)=O)ON2CCC(OC)(OC)C12 (stereo not given)
T/C [20]: 95 % of control
T/C [21]: 98 % of control
T/C [22]: 95 % of control

CCCCCCCCC(=O)C(=O)c1ccc(O)c(C)c1O
T/C [23]: 112 % of control
T/C [24]: 109 % of control
T/C (dose: 200.0 mg/kg/injection, schedule: Q01DX009 (ip), vehicle: Klucel (hydroxypropylcellulose) (HPC)): 110 % of control

C=C(C)C1Cc2c(cc(OC)c3c(=O)c4cccc(O)c4oc23)O1 (stereo not given)
T/C (dose: 2.5 mg/kg/injection, schedule: Q01DX009 (ip), vehicle: distilled water + alcohol): 104 % of control
T/C (dose: 5.0 mg/kg/injection, schedule: Q01DX009 (ip), vehicle: distilled water + alcohol): 101 % of control
T/C (dose: 10.0 mg/kg/injection, schedule: Q01DX009 (ip), vehicle: distilled water + alcohol): 99 % of control

[Co].[N-]=C=S.[N-]=C=S.[N-]=C=S.[NH2-].[NH2-].[NH2-]
T/C (dose: 50.0 mg/kg/injection, schedule: Q01DX001 (ip), vehicle: saline with Tween-80): 101 % of control
T/C [20]: 96 % of control
T/C (dose: 100.0 mg/kg/injection, schedule: Q01DX001 (ip), vehicle: saline with Tween-80): 99 % of control and 94 % of control
T/C [21]: 113 % of control
T/C (dose: 200.0 mg/kg/injection, schedule: Q01DX001 (ip), vehicle: saline with Tween-80): 98 % of control and 106 % of control
T/C (dose: 400.0 mg/kg/injection, schedule: Q01DX001 (ip), vehicle: saline with Tween-80): 98 % of control

Cc1nn(-c2ccccc2)c2c1C(c1ccc(Cl)cc1)C(C#N)=C(N)O2 (stereo not given)
T/C [23]: 94 % of control
T/C [24]: 96 % of control
